Test systems include SK-OV3 (ovarian cancer); MCF (breast cancer); MES-SA (uterine cancer); A-431 (vulvar cancer).
What all share (test): In vitro cytotoxicity against human cancer cell lines
Holding throughout (conditions): read-out: In vitro cytotoxicities, IC50

A word on the IC50: it is the concentration at which inhibition is half-maximal. For the molecule `N.N.O=C([O-])C1(C(=O)[O-])CCC1.[Pt+2]` [Carboplatin, carboplatin], the IC50 with SK-OV3 (ovarian cancer) was determined as 76.5 µM; in the data set with MCF (breast cancer), 48 µM; in the data set with MES-SA (uterine cancer), 48 µM; with A-431 (vulvar cancer), 45.9 µM.

Values taken from patent US8030506B2, “Tumor selective and biodegradable cyclotriphosphazene-platinum(II) conjugate anticancer agent, and preparation method thereof” (Nanohybrid Co., Ltd, priority 2007, dated 2011).
